Experiments:
Assay in all cases: multi-sample expression analysis, band intensity
Type in all cases: in vivo
Settings in all cases: Pooled
[1] = test system: band b1i0_57.4
Source text: (§1) To practice the invention, one skilled in the art obtains a source of biological samples, as well as expression information about the biological samples, i.e., expression information relative to one or more genes or polypeptides encoded therein. Data is collected for a particular phenotype appearing within a given population under study, whereby expression of that phenotype is to be determined within the biological sample under study. The phenotype is correlated to a specific genotype, which is then represented as a band with a given intentity, thus indicative of gene expression levels, and is then compared to control samples. Alternatively, the response of a gene to dosage with one or more drugs is determined by band intensity. The standard deviation from the mean (StdDev) is calculated for the control samples, and is fit to functional form in the following equation: […]
(§2) A multi-sample expression analysis was run using the program described in Example 1. For each drug run, only runs for genes producing bands with a p-value<10^−5 in at least 2 of the following 3 comparisons were selected: low dose versus vehicle, high dose versus vehicle and low dose versus high dose. […] Since clusters found using all 13K bands included some of the best 2K bands, it was concluded that no essential signal was lost (see FIGS. 3 and 4). […] A comparison using the same analytic tests on only the best 2K bands. It can be seen that the Chi Square metric provides a better distinction between low and high doses than the correlation metric, which is not able to distinguish between the low dose and the high dose (see FIG. 6). The low-dose/high dose statistical variation is more pronounced when only the best 2K bands are selected.

[2] = test system: band b1i0_63.7
Source text: as §1, §2

[3] = test system: band b1i0_51.7
Source text: as §1, §2

[4] = test system: band b1i0_53.0
Source text: as §1, §2

[5] = test system: band b1i0_54.5
Source text: as §1, §2

[6] = test system: band b1i0_69.4
Source text: as §1, §2

[7] = test system: band b1i0_62.5
Source text: as §1, §2

[8] = test system: band b1i0_60.7
Source text: as §1, §2

O=NN(CCCl)C(=O)NCCCl [BCNU]
band intensity b1i0_57.4 ([1]; High dose, 1d): 1154
band intensity b1i0_57.4 ([1]; High dose, 3d): 1296
band intensity b1i0_57.4 ([1]; Low dose, 1d): 1235
band intensity b1i0_57.4 ([1]; Low dose, 3d): 1367
band intensity b1i0_57.4 ([1]; Low dose, 7d): 1345
band intensity b1i0_63.7 ([2]; High dose, 1d): 98.18
band intensity b1i0_63.7 ([2]; High dose, 3d): 115.1
band intensity b1i0_63.7 ([2]; Low dose, 1d): 155.4
band intensity b1i0_63.7 ([2]; Low dose, 3d): 104.2
band intensity b1i0_63.7 ([2]; Low dose, 7d): 204.2
band intensity b1i0_51.7 ([3]; High dose, 1d): 29.61
band intensity b1i0_51.7 ([3]; High dose, 3d): 30.97
band intensity b1i0_51.7 ([3]; Low dose, 1d): 24.27
band intensity b1i0_51.7 ([3]; Low dose, 3d): 21.64
band intensity b1i0_51.7 ([3]; Low dose, 7d): 19.76
band intensity b1i0_53.0 ([4]; High dose, 1d): 110.8
band intensity b1i0_53.0 ([4]; High dose, 3d): 118.4
band intensity b1i0_53.0 ([4]; Low dose, 1d): 117.1
band intensity b1i0_53.0 ([4]; Low dose, 3d): 98.96
band intensity b1i0_53.0 ([4]; Low dose, 7d): 104.2
band intensity b1i0_54.5 ([5]; High dose, 1d): 112.4
band intensity b1i0_54.5 ([5]; High dose, 3d): 112.1
band intensity b1i0_54.5 ([5]; Low dose, 1d): 102.8
band intensity b1i0_54.5 ([5]; Low dose, 3d): 103.6
band intensity b1i0_54.5 ([5]; Low dose, 7d): 108.2
band intensity b1i0_69.4 ([6]; High dose, 1d): 194.3
band intensity b1i0_69.4 ([6]; High dose, 3d): 219.1
band intensity b1i0_69.4 ([6]; Low dose, 1d): 254
band intensity b1i0_69.4 ([6]; Low dose, 3d): 292.1
band intensity b1i0_69.4 ([6]; Low dose, 7d): 325.1
band intensity b1i0_62.5 ([7]; High dose, 1d): 67.75
band intensity b1i0_62.5 ([7]; High dose, 3d): 84.85
band intensity b1i0_62.5 ([7]; Low dose, 1d): 69.48
band intensity b1i0_62.5 ([7]; Low dose, 3d): 57.9
band intensity b1i0_62.5 ([7]; Low dose, 7d): 82.58
band intensity b1i0_60.7 ([8]; High dose, 1d): 78.55
band intensity b1i0_60.7 ([8]; High dose, 3d): 115.4
band intensity b1i0_60.7 ([8]; Low dose, 1d): 88.97
band intensity b1i0_60.7 ([8]; Low dose, 3d): 80.09
band intensity b1i0_60.7 ([8]; Low dose, 7d): 96.79

Cc1cc(C(C)(C)C)c(O)c(C(C)(C)C)c1 [BHT]
band intensity b1i0_57.4 ([1]; High dose, 1d): 1177
band intensity b1i0_57.4 ([1]; High dose, 3d): 1235
band intensity b1i0_57.4 ([1]; High dose, 7d): 990.2
band intensity b1i0_57.4 ([1]; High dose, 14d): 1049
band intensity b1i0_57.4 ([1]; Low dose, 1d): 1182
band intensity b1i0_57.4 ([1]; Low dose, 3d): 1224
band intensity b1i0_57.4 ([1]; Low dose, 7d): 1156
band intensity b1i0_57.4 ([1]; Low dose, 14d): 1229
band intensity b1i0_63.7 ([2]; High dose, 1d): 240.7
band intensity b1i0_63.7 ([2]; High dose, 3d): 120.1
band intensity b1i0_63.7 ([2]; High dose, 7d): 313.4
band intensity b1i0_63.7 ([2]; High dose, 14d): 41.88
band intensity b1i0_63.7 ([2]; Low dose, 1d): 152.6
band intensity b1i0_63.7 ([2]; Low dose, 3d): 171.4
band intensity b1i0_63.7 ([2]; Low dose, 7d): 132.3
band intensity b1i0_63.7 ([2]; Low dose, 14d): 161.6
band intensity b1i0_51.7 ([3]; High dose, 1d): 24.21
band intensity b1i0_51.7 ([3]; High dose, 3d): 25.0702
band intensity b1i0_51.7 ([3]; High dose, 7d): 17.72
band intensity b1i0_51.7 ([3]; High dose, 14d): 26.78
band intensity b1i0_51.7 ([3]; Low dose, 1d): 18.78
band intensity b1i0_51.7 ([3]; Low dose, 3d): 18.02
band intensity b1i0_51.7 ([3]; Low dose, 7d): 12.13
band intensity b1i0_51.7 ([3]; Low dose, 14d): 18.31
band intensity b1i0_53.0 ([4]; High dose, 1d): 104.3
band intensity b1i0_53.0 ([4]; High dose, 3d): 101.7
band intensity b1i0_53.0 ([4]; High dose, 7d): 104.1
band intensity b1i0_53.0 ([4]; High dose, 14d): 82.87
band intensity b1i0_53.0 ([4]; Low dose, 1d): 108.8
band intensity b1i0_53.0 ([4]; Low dose, 3d): 87.18
band intensity b1i0_53.0 ([4]; Low dose, 7d): 104.5
band intensity b1i0_53.0 ([4]; Low dose, 14d): 96.38
band intensity b1i0_54.5 ([5]; High dose, 1d): 82.82
band intensity b1i0_54.5 ([5]; High dose, 3d): 96.92
band intensity b1i0_54.5 ([5]; High dose, 7d): 81.74
band intensity b1i0_54.5 ([5]; High dose, 14d): 93.42
band intensity b1i0_54.5 ([5]; Low dose, 1d): 93.97
band intensity b1i0_54.5 ([5]; Low dose, 3d): 101.5
band intensity b1i0_54.5 ([5]; Low dose, 7d): 92.42
band intensity b1i0_54.5 ([5]; Low dose, 14d): 91.73
band intensity b1i0_69.4 ([6]; High dose, 1d): 241.7
band intensity b1i0_69.4 ([6]; High dose, 3d): 251.2
band intensity b1i0_69.4 ([6]; High dose, 7d): 255.9
band intensity b1i0_69.4 ([6]; High dose, 14d): 268.8
band intensity b1i0_69.4 ([6]; Low dose, 1d): 272.5
band intensity b1i0_69.4 ([6]; Low dose, 3d): 190.6
band intensity b1i0_69.4 ([6]; Low dose, 7d): 282.9
band intensity b1i0_69.4 ([6]; Low dose, 14d): 286.5
band intensity b1i0_62.5 ([7]; High dose, 1d): 81.06
band intensity b1i0_62.5 ([7]; High dose, 3d): 56.24
band intensity b1i0_62.5 ([7]; High dose, 7d): 81.59
band intensity b1i0_62.5 ([7]; High dose, 14d): 57.74
band intensity b1i0_62.5 ([7]; Low dose, 1d): 74.66
band intensity b1i0_62.5 ([7]; Low dose, 3d): 70.37
band intensity b1i0_62.5 ([7]; Low dose, 7d): 62.54
band intensity b1i0_62.5 ([7]; Low dose, 14d): 63.7
band intensity b1i0_60.7 ([8]; High dose, 1d): 71.52
band intensity b1i0_60.7 ([8]; High dose, 3d): 70.09
band intensity b1i0_60.7 ([8]; High dose, 7d): 62.31
band intensity b1i0_60.7 ([8]; High dose, 14d): 68.41
band intensity b1i0_60.7 ([8]; Low dose, 1d): 72.36
band intensity b1i0_60.7 ([8]; Low dose, 3d): 69.13
band intensity b1i0_60.7 ([8]; Low dose, 7d): 79.01
band intensity b1i0_60.7 ([8]; Low dose, 14d): 90.11
